Measured values reported in patent publication US7893085B2, “Aza-benzothiophenyl compounds and methods of use” (Genentech, Inc, priority 2006, dated 2011).
pEC50: −log10 of the molar value.

Columns and labels:
[1] = test system: cellular p-ERK in HCT116 or A375 cells; assay: Phospho-ERK cell-based assay (ELISA); conditions: Homo sapiens; in either one of the cell lines (HCT116, A375); 2 h or 24 h
Method: Compounds are tested in a cell-based phospho-ERK ELISA using the following cell lines:
HCT116 human colorectal carcinoma (ATCC)
(§1) A375 human malignant melanoma (ATCC)
Both cell lines are maintained in DMEM/F12 (1:1) media (Gibco) supplemented with 10% FCS at 37° C. in a 5% CO2 humidified incubator.
Cells are seeded in 96-well plates at 2,000 cells/well and after 24 h they are exposed to different concentrations of compounds in 0.83% DMSO. Cells are grown for a further 2 h or 24 h, fixed with formaldehyde (2% final) and permeabilised with methanol. Following blocking with TBST-3% BSA, fixed cells are incubated with primary antibody (anti-phospho ERK from rabbit) over-night at 4° C. Cells are incubated with Propidium Iodide (DNA fluorescent dye) and detection of cellular p-ERK is performed using an anti-rabbit secondary antibody conjugated to the fluorescent Alexa Fluor 488 dye (Molecular probes). The fluorescence is analysed using the Acumen Explorer (lTP Labtech), a laser-scanning microplate cytometer, and the Alexa Fluor 488 signal is normalised to the PI signal (proportional to cell number).
The EC50 is defined as the concentration at which a given compound achieves a signal half way between the baseline and the maximum response. EC50 values are calculated using the XLfit software package (version 2.0.5).

[2] = test system: HCT116 human colorectal carcinoma or A375 human malignant melanoma cells; assay: Cell proliferation assay (CellTiter-Glo); format: cell-based; conditions: in either one of the cell lines (HCT116, A375), 72 h
Method: Compounds are tested in a cell proliferation assay using the following cell lines:
HCT116 human colbrectal carcinoma (ATCC)
as §1
Both cell lines are maintained in DMEMIF12 (1:1) media (Gibco) supplemented with 10% FCS at 37° C. in a 5% CO2 humidified incubator.
Cells are seeded in 96-well plates at 2,000 cells/well and after 24 hours they are exposed to different concentrations of compounds in 0.83% DMSO. Cells are grown for a further 72 h, and an equal volume of CellTiter-Glo reagent (Promega) is added to each well. This lyses the cells and generates a luminescent signal proportional to the amount of ATP released (and therefore proportional to the number of cells in the well) that can be detected using a multiwell luminometer.
The EC50 is defined as the concentration at which a given compound achieves 50% inhibition of control. EC50 values are calculated using the XLfit software package (version 2.0.5).

| pEC50 [1] | SMILES | pEC50 [2] |
| --- | --- | --- |
| > 5.00 | O=C(NOCCO)c1sc2ccncc2c1Nc1ccc(I)cc1F [Example 10, 3-(2-Fluoro-4-iodo-phenylamino)-thieno[3,2-c]pyridine-2-carboxylic acid (2-hydroxyethoxy)-amide] | > 5.00 |
| > 5.00 | O=C(NOCCO)c1sc2c(F)cncc2c1Nc1ccc(I)cc1F [Example 11, 7-Fluoro-3-(2-fluoro-4-iodo-phenylamino)-thieno[3,2-c]pyridine-2-carboxylic acid (2-hydroxy-ethoxy)-amide] | – |
| > 5.00 | CSc1ccc(Nc2c(C(=O)NOCCO)sc3ccncc23)c(F)c1 [Example 12, 3-(2-Fluoro-4-methylsulfanyl-phenylamino)-thieno[3,2-c]pyridine-2-carboxylic acid (2-hydroxy-ethoxy)-amide] | – |

| SMILES | pEC50 [1] | pEC50 [2] |
| --- | --- | --- |
| O=C(NOC[C@H](O)CO)c1sc2ccncc2c1Nc1ccc(I)cc1F [Example 5, 3-(2-Fluoro-4-iodo-phenylamino)-thieno[3,2-c]pyridine-2-carboxylic acid ((R)-2,3-dihydroxy-propoxy)-amide] | > 5.00 | > 5.00 |
